Assay results: patent US9441262B2, “MASP-2, a complement fixing enzyme, and uses for it” (Helion Biotech ApS, priority 1997, dated 2016)

Biological target: T1, MASP-2 (Homo sapiens, UniProt O00187)
T1 construct: applying test samples, e.g., diluted plasma or serum samples; from tissue; host or cells: plasma or serum
Assay: TRIFMA for MASP-2 activity of the MBL/MASP complex (C4 activation on mannan-coated wells)
Type: biochemical
Experimental: MASP-2 may be estimated by its capacity to activate the complement system. When C4 is cleaved by MASP-2 an active thiol ester is exposed and C4 becomes covalently attached to nearby nucleophilic groups. A substantial part of the C4b will thus become attached to the coated plastic well and may be detected by anti-C4 antibody. A quantitative TRIFMA for MASP-2 activity was constructed by 1) coating microtitre wells with 1 μg mannan in 100 μl buffer; 2) blocking with Tween-20; 3) applying test samples, e.g., diluted plasma or serum samples; 4) applying purified complement factor C4 at 5 μg/ml; 5) incubate for one hour at 37° C.; 6) applying Eu-labelled anti-C4 antibody; 7) applying enhancement solution; and 8) reading the Eu by time resolved fluorometry. (Estimation by ELISA may be carried out similarly, e.g. by applying biotin-labelled anti-C4 in step 6; 7) apply alkaline phosphatase-labelled avidin; 8) apply substrate; and 9) read the colour intensity). Between each step the plate was incubated at room temperature and washed, except between step 7 and 8. A calibration curve can be constructed using dilutions of one selected normal plasma, arbitrarily said to contain 1 unit of MBL/MASP-2 activity per ml. The assay is carried out at conditions which preclude activation of C4 by the classical or alternative complement activation pathways.

T1 sequence (O00187 445-686 limits assumed): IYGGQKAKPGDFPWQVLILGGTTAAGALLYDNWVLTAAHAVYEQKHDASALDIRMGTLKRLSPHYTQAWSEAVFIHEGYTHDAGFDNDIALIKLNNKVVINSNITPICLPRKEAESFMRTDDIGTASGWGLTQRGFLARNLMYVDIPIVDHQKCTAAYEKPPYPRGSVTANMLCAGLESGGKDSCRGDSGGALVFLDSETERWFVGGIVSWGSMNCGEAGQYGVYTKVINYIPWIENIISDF
T1 sequence (O00187 16-444 partner limits assumed): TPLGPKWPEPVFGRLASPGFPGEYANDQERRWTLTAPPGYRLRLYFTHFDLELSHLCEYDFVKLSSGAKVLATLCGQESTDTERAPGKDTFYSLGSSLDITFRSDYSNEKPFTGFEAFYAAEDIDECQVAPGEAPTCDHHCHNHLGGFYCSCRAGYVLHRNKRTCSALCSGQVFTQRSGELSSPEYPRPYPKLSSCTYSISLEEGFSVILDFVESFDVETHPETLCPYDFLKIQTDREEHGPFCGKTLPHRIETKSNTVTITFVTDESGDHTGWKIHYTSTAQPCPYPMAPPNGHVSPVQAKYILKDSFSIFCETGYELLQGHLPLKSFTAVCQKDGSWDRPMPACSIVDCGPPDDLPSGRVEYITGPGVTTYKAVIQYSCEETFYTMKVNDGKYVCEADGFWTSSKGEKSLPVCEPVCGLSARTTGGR
T1 sequence (P11226 21-248 partner): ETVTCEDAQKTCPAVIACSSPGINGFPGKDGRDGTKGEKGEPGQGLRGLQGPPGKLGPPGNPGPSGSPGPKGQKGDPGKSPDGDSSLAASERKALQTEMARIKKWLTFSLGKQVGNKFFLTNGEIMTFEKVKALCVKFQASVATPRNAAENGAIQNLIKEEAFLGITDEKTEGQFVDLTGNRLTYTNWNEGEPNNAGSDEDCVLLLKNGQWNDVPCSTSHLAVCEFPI

activation of C4 (purified C4 at 5 μg/ml, one hour at 37° C.)	SMILES	effectiveness as enzyme inhibitor in the TRIFMA for MASP-2 activity
–	O=S(=O)(F)Cc1ccccc1 [PMSF]	proved effective
–	Cl.NCCc1ccc(S(=O)(=O)F)cc1 [Pefabloc]	inhibitors of MASP-2 activity
completely inhibited	N=C(N)c1ccccc1 [benzamidine]	proved effective
